{"source": "patent US8124793B2", "about": "“Derivatives of ethylene methanedisulfonate as cancer chemotherapeutic agents” (priority 2007, dated 2012)", "format_in_all_cases": "cell-based", "key": {"CCRF-CEM": {"test_system": "CCRF-CEM", "test": "NCI screen, growth of human tumor cells: Leukemia CCRF-CEM", "conditions": "CCRF-CEM (Leukemia), 10^−4 molar", "method_in_brief": "(§1)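 NCI screening: compound applied to tumor cell lines at a given molar concentration, growth measured as percent. Minimum 60 data points/compound; cancer type noted.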"}, "RPMI-8226": {"test_system": "RPMI-8226", "test": "NCI screen, growth of human tumor cells: Leukemia RPMI-8226", "conditions": "RPMI-8226 (Leukemia), 10^−4 molar", "method_in_brief": "as §1"}, "SR": {"test_system": "SR", "test": "NCI screen, growth of human tumor cells: Leukemia SR", "conditions": "SR (Leukemia), 10^−4 molar", "method_in_brief": "as §1"}, "AS49/ATCC": {"test_system": "AS49/ATCC", "test": "NCI screen, growth of human tumor cells: Non-Small Cell Lung AS49/ATCC", "conditions": "AS49/ATCC (Non-Small Cell Lung), 10^−4 molar", "method": "(§2) In the NCI screening process, each compound was tested and described by a minimum of 60 data points. The test data include, but are not limited to the type of cancer, the molar concentration used in the screen, and the percent growth of the cancer. In some cases, NMR and elemental analysis were used for structural assignment."}, "HOP-62": {"test_system": "HOP-62", "test": "NCI screen, growth of human tumor cells: Non-Small Cell Lung HOP-62", "conditions": "HOP-62 (Non-Small Cell Lung), 10^−4 molar", "method_in_brief": "as §1"}, "NCI-H226": {"test_system": "NCI-H226", "test": "NCI screen, growth of human tumor cells: Non-Small Cell Lung NCI-H226", "conditions": "NCI-H226, 10^−4 molar", "method_in_brief": "as §1"}, "NCI-H522": {"test_system": "NCI-H522", "test": "NCI screen, growth of human tumor cells: Non-Small Cell Lung NCI-H522", "conditions": "NCI-H522, 10^−4 molar", "method": "as §2"}, "NCI-H322M": {"test_system": "NCI-H322M", "test": "NCI screen, growth of human tumor cells: Non-Small Cell Lung NCI-H322M", "conditions": "NCI-H322M (Non-Small Cell Lung), 10^−4 molar", "method": "as §2"}, "NCI-H23": {"test_system": "NCI-H23", "test": "NCI screen, growth of human tumor cells: Non-Small Cell Lung NCI-H23", "conditions": "NCI-H23, 10^−4 molar", "method_in_brief": "as §1"}, "COLO205": {"test_system": "COLO205", "test": "NCI screen, growth of human tumor cells: Colon Cancer COLO205", "conditions": "COLO205, 10^−4 molar", "method_in_brief": "as §1"}, "HCT-116": {"test_system": "HCT-116", "test": "NCI screen, growth of human tumor cells: Colon Cancer HCT-116", "conditions": "HCT-116 (Colon Cancer), 10^−4 molar", "method_in_brief": "as §1"}, "HT29": {"test_system": "HT29", "test": "NCI screen, growth of human tumor cells: Colon Cancer HT29", "method": "as §2"}, "KM12": {"test_system": "KM12", "test": "NCI screen, growth of human tumor cells: Colon Cancer KM12", "conditions": "KM12 (Colon Cancer), 10^−4 molar", "method_in_brief": "as §1"}, "SF-268": {"test_system": "SF-268", "test": "NCI screen, growth of human tumor cells: CNS Cancer SF-268", "conditions": "SF-268 (CNS Cancer), 10^−4 molar", "method_in_brief": "as §1"}, "SF-295": {"test_system": "SF-295", "test": "NCI screen, growth of human tumor cells: CNS Cancer SF-295", "conditions": "SF-295, 10^−4 molar", "method_in_brief": "as §1"}, "SF-539": {"test_system": "SF-539", "test": "NCI screen, growth of human tumor cells: CNS Cancer SF-539", "conditions": "SF-539, 10^−4 molar", "method_in_brief": "as §1"}, "U-251": {"test_system": "U-251", "test": "NCI screen, growth of human tumor cells: CNS Cancer U-251", "conditions": "U-251 (CNS Cancer), 10^−4 molar", "method_in_brief": "as §1"}, "M14": {"test_system": "M14", "test": "NCI screen, growth of human tumor cells: Melanoma M14", "conditions": "M14 (Melanoma), 10^−4 molar", "method_in_brief": "as §1"}, "MALME-3M": {"test_system": "MALME-3M", "test": "NCI screen, growth of human tumor cells: Melanoma MALME-3M", "conditions": "MALME-3M, 10^−4 molar", "method": "as §2"}, "SK-MEL-2": {"test_system": "SK-MEL-2", "test": "NCI screen, growth of human tumor cells: Melanoma SK-MEL-2", "conditions": "SK-MEL-2 (Melanoma), 10^−4 molar", "method": "as §2"}, "SK-MEL-28": {"test_system": "SK-MEL-28", "test": "NCI screen, growth of human tumor cells: Melanoma SK-MEL-28", "method": "as §2"}, "SK-MEL-5": {"test_system": "SK-MEL-5", "test": "NCI screen, growth of human tumor cells: Melanoma SK-MEL-5", "conditions": "SK-MEL-5, 10^−4 molar", "method_in_brief": "as §1"}, "UACC-257": {"test_system": "UACC-257", "test": "NCI screen, growth of human tumor cells: Melanoma UACC-257", "conditions": "UACC-257 (Melanoma), 10^−4 molar", "method": "as §2"}, "UACC-62": {"test_system": "UACC-62", "test": "NCI screen, growth of human tumor cells: Melanoma UACC-62", "conditions": "UACC-62, 10^−4 molar", "method_in_brief": "as §1"}, "IGROVI": {"test_system": "IGROVI", "test": "NCI screen, growth of human tumor cells: Ovarian Cancer IGROVI", "conditions": "IGROVI (Ovarian Cancer), 10^−4 molar", "method": "as §2"}, "SK-OV-3": {"test_system": "SK-OV-3", "test": "NCI screen, growth of human tumor cells: Ovarian Cancer SK-OV-3", "conditions": "SK-OV-3 (Ovarian Cancer), 10^−4 molar", "method": "as §2"}, "OVCAR-3": {"test_system": "OVCAR-3", "test": "NCI screen, growth of human tumor cells: Ovarian Cancer OVCAR-3", "conditions": "OVCAR-3 (Ovarian Cancer), 10^−4 molar", "method_in_brief": "as §1"}, "OVCAR-5": {"test_system": "OVCAR-5", "test": "NCI screen, growth of human tumor cells: Ovarian Cancer OVCAR-5", "conditions": "OVCAR-5, 10^−4 molar", "method": "as §2"}, "ACHN": {"test_system": "ACHN", "test": "NCI screen, growth of human tumor cells: Renal Cancer ACHN", "conditions": "ACHN (Renal Cancer), 10^−4 molar", "method_in_brief": "as §1"}, "RXF-393": {"test_system": "RXF-393", "test": "NCI screen, growth of human tumor cells: Renal Cancer RXF-393", "conditions": "RXF-393 (Renal Cancer), 10^−4 molar", "method_in_brief": "as §1"}, "SN12C": {"test_system": "SN12C", "test": "NCI screen, growth of human tumor cells: Renal Cancer SN12C", "conditions": "SN12C (Renal Cancer), 10^−4 molar", "method_in_brief": "as §1"}, "DU-145": {"test_system": "DU-145", "test": "NCI screen, growth of human tumor cells: Prostate Cancer DU-145", "conditions": "DV-145, 10^−4 molar", "method_in_brief": "as §1"}, "MCF 7": {"test_system": "MCF 7", "test": "NCI screen, growth of human tumor cells: Breast Cancer MCF 7", "conditions": "MCF 7 (Breast Cancer), 10^−4 molar", "method": "as §2"}, "BT-549": {"test_system": "BT-549", "test": "NCI screen, growth of human tumor cells: Breast Cancer BT-549", "conditions": "BT-549 (Breast Cancer), 10^−4 molar", "method_in_brief": "as §1"}, "HS 578T": {"test_system": "HS 578T", "test": "NCI screen, growth of human tumor cells: Breast Cancer HS 578T", "conditions": "HS 578T (Breast Cancer), 10^−4 molar", "method_in_brief": "as §1"}, "human cancer cells": {"test_system": "human cancer cells", "test": "NCI screen summary over the cancers tested (negative growth of human cancer cells)", "conditions": "cancers with negative growth / cancers tested", "method": "as §2\nThe derivatives in the tables are grouped using the same category as in the tables 1-6."}}, "data": [{"compound": "CC1=C(CC2(C(=O)C(F)(F)C(F)(F)C(F)(F)F)S(=O)(=O)OCCOS2(=O)=O)C(=O)c2ccccc2C1=O", "note": "[NSC 720683, ethylene perfluorobutyril-(3-methyl-1,4-naphtho-2-quinoyl)-1,1-ethanedisulfonate]", "values": [{"measurement": "percent of growth of human tumor cells", "setting": "CCRF-CEM", "value": 5, "unit": "%"}, {"measurement": "percent of growth of human tumor cells", "setting": "RPMI-8226", "value": 28, "unit": "%"}, {"measurement": "percent of growth of human tumor cells", "setting": "SR", "value": "−22", "unit": "%"}, {"measurement": "percent of growth of human tumor cells", "setting": "AS49/ATCC", "value": "−45", "unit": "%"}, {"measurement": "percent of growth of human tumor cells", "setting": "HOP-62", "value": "−28", "unit": "%"}, {"measurement": "% Growth", "setting": "NCI-H226", "value": "−68", "unit": "%"}, {"measurement": "% Growth", "setting": "NCI-H522", "value": "−68", "unit": "%"}, {"measurement": "percent of growth of human tumor cells", "setting": "NCI-H322M", "value": 25, "unit": "%"}, {"measurement": "% Growth", "setting": "NCI-H23", "value": "−75", "unit": "%"}, {"measurement": "% Growth", "setting": "COLO205", "value": "−84", "unit": "%"}, {"measurement": "percent of growth of human tumor cells", "setting": "HCT-116", "value": 22, "unit": "%"}, {"measurement": "% Growth", "setting": "HT29; HT-29, 10^−4 molar", "value": "−100", "unit": "%"}, {"measurement": "% Growth", "setting": "HT29; HT-29, 10^−5 molar", "value": "−37", "unit": "%"}, {"measurement": "% Growth", "setting": "HT29; HT-29, 10^−6 molar", "value": "−6", "unit": "%"}, {"measurement": "% Growth", "setting": "HT29; HT-29, 10^−7 molar", "value": 23, "unit": "%"}, {"measurement": "percent of growth of human tumor cells", "setting": "KM12", "value": 26, "unit": "%"}, {"measurement": "percent of growth of human tumor cells", "setting": "SF-268", "value": 1, "unit": "%"}, {"measurement": "% Growth", "setting": "SF-295", "value": "−70", "unit": "%"}, {"measurement": "% Growth", "setting": "SF-539", "value": "−67", "unit": "%"}, {"measurement": "percent of growth of human tumor cells", "setting": "U-251", "value": 12, "unit": "%"}, {"measurement": "percent of growth of human tumor cells", "setting": "M14", "value": "−56", "unit": "%"}, {"measurement": "% Growth", "setting": "MALME-3M", "value": "−87", "unit": "%"}, {"measurement": "percent of growth of human tumor cells", "setting": "SK-MEL-2", "value": "−57", "unit": "%"}, {"measurement": "% Growth", "setting": "SK-MEL-28; SK-MEL-28, 10^−4 molar", "value": "−85", "unit": "%"}, {"measurement": "% Growth", "setting": "SK-MEL-28; SK-MEL-28, 10^−5 molar", "value": "−55", "unit": "%"}, {"measurement": "% Growth", "setting": "SK-MEL-28; SK-MEL-28, 10^−6 molar", "value": "−31", "unit": "%"}, {"measurement": "% Growth", "setting": "SK-MEL-28; SK-MEL-28, 10^−7 molar", "value": 31, "unit": "%"}, {"measurement": "% Growth", "setting": "SK-MEL-28; SK-MEL-28, 10^−8 molar", "value": 74, "unit": "%"}, {"measurement": "% Growth", "setting": "SK-MEL-5", "value": "−95", "unit": "%"}, {"measurement": "percent of growth of human tumor cells", "setting": "UACC-257", "value": "−18", "unit": "%"}, {"measurement": "% Growth", "setting": "UACC-62", "value": "−85", "unit": "%"}, {"measurement": "percent of growth of human tumor cells", "setting": "IGROVI", "value": 27, "unit": "%"}, {"measurement": "percent of growth of human tumor cells", "setting": "SK-OV-3", "value": 24, "unit": "%"}, {"measurement": "percent of growth of human tumor cells", "setting": "OVCAR-3", "value": 30, "unit": "%"}, {"measurement": "% Growth", "setting": "OVCAR-5", "value": "−71", "unit": "%"}, {"measurement": "percent of growth of human tumor cells", "setting": "ACHN", "value": "−27", "unit": "%"}, {"measurement": "percent of growth of human tumor cells", "setting": "RXF-393", "value": 9, "unit": "%"}, {"measurement": "percent of growth of human tumor cells", "setting": "SN12C", "value": "−37", "unit": "%"}, {"measurement": "% Growth", "setting": "DU-145", "value": "−100", "unit": "%"}, {"measurement": "percent of growth of human tumor cells", "setting": "MCF 7", "value": "−24", "unit": "%"}, {"measurement": "percent of growth of human tumor cells", "setting": "BT-549", "value": "−50", "unit": "%"}, {"measurement": "percent of growth of human tumor cells", "setting": "HS 578T", "value": "−14", "unit": "%"}, {"measurement": "Percentage of cancers showing negative growth cancers tested", "setting": "human cancer cells; 10^−5 M conc.", "value": 100, "unit": "%"}, {"measurement": "Percentage of cancers showing negative growth cancers tested", "setting": "human cancer cells; 10^−6 M conc.", "value": 100, "unit": "%"}]}]}
